Laboratory results published in ChEMBL document CHEMBL1142187, “In vitro and in vivo activities of Chios mastic gum extracts and constituents against Helicobacter pylori” (2007).
≈ marks a conversion by molar mass, not a printed value.

System: Helicobacter pylori
Assay: Antibacterial activity against Helicobacter pylori after 48 hrs
Assay type: functional

CC1(C)C=C2[C@H]3CC[C@@H]4[C@@]5(C)CCC(=O)C(C)(C)[C@@H]5CC[C@@]4(C)[C@]3(C)CC[C@@]2(C(=O)O)CC1 [MORONIC ACID] and CC1(C)CC[C@]2(C(=O)O)CC[C@]3(C)C(=CC[C@@H]4[C@@]5(C)CCC(=O)C(C)(C)[C@@H]5CC[C@]43C)[C@@H]2C1 [OLEANONIC ACID] are within 1.5-fold of each other in MBC: 310 µg/mL (≈ 682 µM) for the first, 292 µg/mL (≈ 642 µM) for the second.

Compared with C/C(=C/CC[C@H](C)C1CC[C@]2(C)C3=CCC4C(C)(C)C(=O)CC[C@]4(C)C3CC[C@@]12C)C(=O)O (stereo partly specified), C/C(=C/CC[C@H](C)C1CC[C@]2(C)C3=CCC4C(C)(C)[C@@H](O)CC[C@]4(C)C3CC[C@@]12C)C(=O)O (stereo partly specified) is 1.6-fold lower in MBC: 350 µg/mL (≈ 770 µM) for the first, 220 µg/mL (≈ 482 µM) for the second.

Compared with C/C(=C/CC[C@H](C)C1CC[C@]2(C)C3=C(CC[C@@]12C)[C@@]1(C)CC[C@H](O)C(C)(C)C1CC3)C(=O)O (stereo partly specified), C/C(=C/CC[C@H](C)C1CC[C@]2(C)C3=C(CC[C@@]12C)[C@@]1(C)CCC(=O)C(C)(C)C1CC3)C(=O)O (stereo partly specified) is 1.6-fold higher in MBC: 202 µg/mL (≈ 442 µM) for the first, 333 µg/mL (≈ 732 µM) for the second.
